Experimental data as given in ChEMBL document CHEMBL3817755, “Design, synthesis and biological evaluation of indazolepyrimidine based derivatives as anticancer agents with anti-angiogenic and antiproliferative activities” (Medchemcomm, 2016).

Columns and labels:
[1] = Growth inhibition of human SNB19 cells after 48 hrs by SRB assay; format: functional; conditions: SNB-19, 48 h
[2] = system: SK-MEL-28; experiment: Growth inhibition of human SK-MEL-28 cells after 48 hrs by SRB assay; format: functional; conditions: SK-MEL-28, 48 h, read-out: LC50 (the source's name)
[3] = Growth inhibition of human IGROV1 cells after 48 hrs by SRB assay; format: functional; conditions: IGROV-1, 48 h
[4] = system: NCI-H322M; experiment: Growth inhibition of human NCI-H322M cells after 48 hrs by SRB assay; format: functional
[5] = system: MDA-MB-231; experiment: Growth inhibition of human MDA-MB-231 cells after 48 hrs by SRB assay; format: functional; conditions: MDA-MB-231, 48 h
[6] = Growth inhibition of human UACC62 cells after 48 hrs by SRB assay; format: functional; conditions: UACC-62, 48 h
[7] = system: Malme-3M; experiment: Growth inhibition of human MALME-3M cells after 48 hrs by SRB assay; format: functional
[8] = system: SN12C; experiment: Growth inhibition of human SN12C cells after 48 hrs by SRB assay; format: functional
[9] = Growth inhibition of human SF539 cells after 48 hrs by SRB assay; format: functional; conditions: SF-539, 48 h
[10] = Growth inhibition of human UO31 cells after 48 hrs by SRB assay; format: functional; conditions: UO-31, 48 h
[11] = system: ACHN; experiment: Growth inhibition of human ACHN cells after 48 hrs by SRB assay; format: functional
[12] = Antiangiogenic activity in human PC3 cells assessed as reduction in TNF-alpha levels at […] +/- […] uM after 72 hrs by ELISA relative to control; format: functional, PC-3; set-up: scale not given: the % may be the effect or the level left
[13] = Antiangiogenic activity in human PC3 cells assessed as reduction in TGF-beta levels at […] +/- […] uM after 72 hrs by ELISA relative to control; format: functional, PC-3; set-up: scale not given: the % may be the effect or the level left
[14] = Solubility of the compound; format: physicochemical
[15] = Antiangiogenic activity in human PC3 cells assessed as reduction in FGF-beta levels at […] +/- […] uM after 72 hrs by ELISA relative to control; format: functional, PC-3; set-up: scale not given: the % may be the effect or the level left
[16] = Antiangiogenic activity in human PC3 cells assessed as reduction in EGF levels at […] +/- […] uM after 72 hrs by ELISA relative to control; format: functional, PC-3; set-up: scale not given: the % may be the effect or the level left
[17] = Antiangiogenic activity in human PC3 cells assessed as reduction in VEGF levels at […] +/- […] uM after 72 hrs by ELISA relative to control; format: functional, PC-3; set-up: scale not given: the % may be the effect or the level left
[18] = system: HUVEC; experiment: Antiproliferative activity against HUVEC after 72 hrs by AlamarBlue assay; conditions: Homo sapiens
[19] = Antiangiogenic activity in human PC3 cells assessed as reduction in leptin levels at […] +/- […] uM after 72 hrs by ELISA relative to control; format: functional, PC-3; set-up: scale not given: the % may be the effect or the level left
[20] = read-out: LC50 (the source's name)

With `COc1ccc(Nc2nccc(Nc3ccc4[nH]ncc4c3)n2)cc1` the GI50 [1] was 4.3 µM, the TGI [1] was 87 µM and the CC50 [1, 20] was > 100 µM. The CC50 [2] was > 100 µM, the GI50 [3] was 3.36 µM and the TGI [3] was 25.1 µM. The CC50 [3, 20] was > 100 µM, the GI50 [4] was 4.48 µM and the TGI [4] was 38.2 µM. The CC50 [4, 20] was > 100 µM, the GI50 [5] was 2.69 µM and the TGI [5] was 5.36 µM. For the same molecule, the CC50 [5, 20] was > 100 µM, the GI50 [6] was 1.93 µM and the TGI [6] was 16.9 µM. The CC50 [6, 20] was > 100 µM, the GI50 [7] was 3.27 µM and the TGI [7] was 15.9 µM. For the same molecule, the CC50 [7, 20] was > 100 µM, the GI50 [8] was 3.92 µM and the TGI [8] was > 100 µM. The CC50 [8, 20] was > 100 µM, the GI50 [9] was 4.38 µM and the TGI [9] was 16.8 µM. The CC50 [9, 20] was 51.3 µM, the GI50 [10] was 2.12 µM and the TGI [10] was 11.4 µM. It also gave a CC50 [10, 20] of 33.8 µM, a GI50 [11] of 2.89 µM and a TGI [11] of 11.7 µM. The CC50 [11, 20] was 45 µM.

For `NS(=O)(=O)c1ccc(Nc2nccc(Nc3ccc4[nH]ncc4c3)n2)cc1`, the Activity [12] was 36%, the Activity [13] was 32.2% and the solubility [14] was “Insoluble”. For the same molecule, the Activity [15] was 28.4%, the Activity [16] was 34.6% and the Activity [17] was 37.6%. For the same molecule, the IC50 [18] was 1.37 µM and the Activity [19] was 24.5%.
